Experimental data published in the supplement of paper PMC5579334.
± gives the standard deviation of the averaged measurements.

Experiments:
ST8814 [1] = assay: drug sensitivity score (DSS, CellTox-Green cytotoxicity, 72 h) (DSS (dimensionless)); higher = more cytotoxic; extreme values may be limits of the assay
Procedure, shortened: (§1)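 MPNST cell lines and primary human Schwann cells were grown for 72 h at 37 °C in 384-well plates containing five 10-fold compound dilutions. CellTox-Green, added before seeding at a final 1:1000 dilution, gave fluorescence from DNA released by disrupted cells, and signals were scaled to vehicle and positive-control wells. Curves were fitted with a four-parameter logistic model. Drug sensitivity score and relative IC50 come from these fits, with IC50 censored at the top concentration.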

S1507-2 [2] = assay: as above
Procedure, shortened: as §1

[3] = test system: HSC2 (primary human Schwann cells); assay: as above
Procedure, shortened: as §1

STS26T [4] = assay: as above
Procedure, shortened: as §1

[5] = test system: HSC1 (primary human Schwann cells); assay: as above
Procedure, shortened: as §1

HS-PSS [6] = assay: as above
Procedure, shortened: as §1

ST8814 [7] = assay: drug sensitivity score (DSS, CellTiter-Glo viability, 72 h) (DSS (dimensionless)); higher = more sensitive; extreme values may be limits of the assay
Procedure, shortened: (§2)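 For this screen, 384-well plates were preprinted with each compound at five concentrations in 10-fold steps and seeded with MPNST cell lines or primary human Schwann cells at 750–1000 cells per well. Incubation lasted 72 h at 37 °C, 5% CO2, and CellTiter-Glo ATP luminescence, scaled between vehicle and positive-control wells and averaged over duplicates where available, served as viability. Logistic fits with four parameters were applied. Relative IC50 (censored at the top concentration) and drug sensitivity score derive from these fits, and percent inhibition is at the top concentration.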

S1507-2 [8] = assay: as above
Procedure, shortened: as §2

YST-1 [9] = assay: as above
Procedure, shortened: as §2

[10] = test system: HSC2 (primary human Schwann cells); assay: as above
Procedure, shortened: as §2

HS-Sch-2 [11] = assay: as above
Procedure, shortened: as §2

STS26T [12] = assay: as above
Procedure, shortened: as §2

[13] = test system: HSC1 (primary human Schwann cells); assay: as above
Procedure, shortened: as §2

HS-PSS [14] = assay: as above
Procedure, shortened: as §2

S462 [15] = assay: as above
Procedure, shortened: as §2

ST8814 [16] = assay: % inhibition of CellTiter-Glo viability at highest tested concentration (72 h), relative to DMSO and benzethonium chloride controls; higher = more inhibition
Procedure, shortened: as §2

S1507-2 [17] = assay: as above
Procedure, shortened: as §2

YST-1 [18] = assay: as above
Procedure, shortened: as §2

[19] = test system: HSC2 (primary human Schwann cells); assay: as above
Procedure, shortened: as §2

HS-Sch-2 [20] = assay: as above
Procedure, shortened: as §2

STS26T [21] = assay: as above
Procedure, shortened: as §2

[22] = test system: HSC1 (primary human Schwann cells); assay: as above
Procedure, shortened: as §2

HS-PSS [23] = assay: as above
Procedure, shortened: as §2

S462 [24] = assay: as above
Procedure, shortened: as §2

SMILES	drug sensitivity score (ST8814 [1])	drug sensitivity score (S1507-2 [2])	drug sensitivity score [3]	drug sensitivity score (STS26T [4])	drug sensitivity score [5]	drug sensitivity score (HS-PSS [6])	drug sensitivity score (ST8814 [7])	drug sensitivity score (S1507-2 [8])	drug sensitivity score (YST-1 [9])	drug sensitivity score [10]	drug sensitivity score (HS-Sch-2 [11])	drug sensitivity score (STS26T [12])	drug sensitivity score [13]	drug sensitivity score (HS-PSS [14])	drug sensitivity score (S462 [15])	% inhibition (ST8814 [16]) [%]	% inhibition (S1507-2 [17]) [%]	% inhibition (YST-1 [18]) [%]	% inhibition [19] [%]	% inhibition (HS-Sch-2 [20]) [%]	% inhibition (STS26T [21]) [%]	% inhibition [22] [%]	% inhibition (HS-PSS [23]) [%]	% inhibition (S462 [24]) [%]
CN(C)/N=N/c1[nH]cnc1C(N)=O [Dacarbazine] (max concentration tested 10000 nM)	0	0.828 ± 1.2	0	0	0	0	0	0	0	0	0	1.17	0	0	0.065 ± 0.092	3.31	-5.83 ± 6.6	-4.08	-1.82	7.05	23.5	9.74	7.14	8.66 ± 8.8
C[C@@H]1CCN(C(=O)CC#N)C[C@@H]1N(C)c1ncnc2[nH]ccc12 [Tofacitinib] (max concentration tested 5000 nM)	0	0.083 ± 0.12	0	0	0	0	0	0.398 ± 0.56	0.89	1.53	0.89	0.0007	3.18	0	1.27 ± 0.56	6.57	0.251 ± 0.54	-2.9	25.1	-3.98	10.4	11.7	-4.37	17.1 ± 3.5
COc1cc2c(NC3CCN(C(C)C)CC3)nc(C3CCCCC3)nc2cc1OCCCN1CCCC1 [UNC0638] (max concentration tested 10000 nM)	7.41	23.4 ± 25	0	5.16	0	6.72	6.45	8.72 ± 0.32	6.1	0.116	7.32	5.05	0.362	8.75	6.31 ± 2.1	98.6	99.6 ± 1	100	14.9	101	99.1	21.5	101	98.9 ± 1.6
Cc1cc(Nc2nc(N[C@@H](C)c3ncc(F)cn3)ncc2Cl)[nH]n1 [AZD1480] (max concentration tested 1000 nM)	0	5.43 ± 7.7	0.662	0	0	0	0.0148	0.0872 ± 0.12	0.54	0.934	0	0.3	2.84	0.78	1.64 ± 0.2	10.4	11.6 ± 8	20.3	17	2.41	18.1	37.6	20.3	26.4 ± 3.4
S=P(N1CC1)(N1CC1)N1CC1 [Thio-TEPA] (max concentration tested 50000 nM)	0	0.0053 ± 0.0075	0	0	0.888	0	0.888	0	0	0	0.99	0.888	0	0	0	-6.39	-14.5 ± 2.9	9.03	1.51	9.72	-2.04	2.2	3.83	-14.47 ± 0.14
COc1cc(OC2CCN(C)CC2)ccc1Nc1ncc2c(n1)n(C1CCCC1)c(=O)n2C [AZ 3146] (max concentration tested 10000 nM)	5.94	2.07 ± 1.8	0.0952	4.54	0	1.72	6.15	5.68 ± 1.6	6.64	2.78	8.57	6.58	2.64	6.35	9.91 ± 0.79	92.4	87.86 ± 0.87	68.7	54.7	95.6	62.1	53.1	75.4	82.8 ± 4.9
CC(=O)Nc1cccc(-n2c(=O)n(C3CC3)c(=O)c3c(Nc4ccc(I)cc4F)n(C)c(=O)c(C)c32)c1 [Trametinib] (max concentration tested 250 nM)	6.34	4.3 ± 0.49	0.138	0	0	0.89	12.8	10.4 ± 0.064	0	8.12	4.27	7.88	9.86	5.07	13.48 ± 0.13	96.7	76.9 ± 1.3	4.55	66.4	53.5	48.4	64.5	46.4	85.67 ± 0.21
